Test system: human peripheral blood mononuclear cells (PBMC)
Assay: PBMC cytotoxicity assay (CellTiter-Glo)
Type: cell-based
Details: cytotoxicity in stimulated PBMC, recorded as pCC50
Protocol: Compounds of the present invention were tested via high-throughput cellular assays utilizing detection of kynurenine via mass spectrometry and cytotoxicity as end-points. […] Compounds with IDO1 inhibitory properties decreased the amount of kynurenine produced by the cells via the tryptophan catabolic pathway. Cellular toxicity due to the effect of compound treatment was measured using CellTiter-Glo® reagent (CTG) (Promega Corporation, Madison, Wis.), which is based on luminescent detection of ATP, an indicator of metabolically active cells.
In preparation for the assays, test compounds were serially diluted 3-fold in DMSO from a typical top concentration of 1 mM or 5 mM and plated at 0.5 μL in 384-well, polystyrene, clear bottom, tissue culture treated plates with lids (Greiner Bio-One, Kremsmünster, Austria) to generate 11-point dose response curves. Low control wells (0% kynurenine or 100% cytotoxicity) contained either 0.5 μL of DMSO in the presence of unstimulated (−IFN-γ/−LPS) PBMCs for the mass spectrometry assay or 0.5 μL of DMSO in the absence of cells for the cytotoxicity assay, and high control wells (100% kynurenine or 0% cytotoxicity) contained 0.5 μL of DMSO in the presence of stimulated (+IFN-γ/+LPS) PBMCs for both the mass spectrometry and cytotoxicity assays.
Frozen stocks of PBMCs were washed and recovered in RPMI 1640 medium (Thermo Fisher Scientific, Inc., Waltham, Mass.) supplemented with 10% v/v heat-inactivated fetal bovine serum (FBS) (Thermo Fisher Scientific, Inc., Waltham, Mass.), and 1× penicillin-streptomycin antibiotic solution (Thermo Fisher Scientific, Inc., Waltham, Mass.). The cells were diluted to 1,000,000 cells/mL in the supplemented RPMI 1640 medium. 50 μL of either the cell suspension, for the mass spectrometry assay, or medium alone, for the cytotoxicity assay, were added to the low control wells, on the previously prepared 384-well compound plates, resulting in 50,000 cells/well or 0 cells/well respectively. IFN-γ and LPS were added to the remaining cell suspension at final concentrations of 100 ng/ml and 50 ng/ml respectively, and 50 μL of the stimulated cells were added to all remaining wells on the 384-well compound plates. The plates, with lids, were then placed in a 37° C., 5% CO2 humidified incubator for 2 days.
Following incubation, the 384-well plates were removed from the incubator and allowed to equilibrate to room temperature for 30 minutes. For the cytotoxicity assay, CellTiter-Glo® was prepared according to the manufacturer's instructions, and 40 μL were added to each plate well. After a twenty minute incubation at room temperature, luminescence was read on an EnVision® Multilabel Reader (PerkinElmer Inc., Waltham, Mass.). For the mass spectrometry assay, 10 μL of supernatant from each well of the compound-treated plates were added to 40 μL of acetonitrile, containing 10 μM of an internal standard for normalization, in 384-well, polypropylene, V-bottom plates (Greiner Bio-One, Kremsmünster, Austria) to extract the organic analytes. Following centrifugation at 2000 rpm for 10 minutes, 10 μL from each well of the acetonitrile extraction plates were added to 90 μL of sterile, distilled H2O in 384-well, polypropylene, V-bottom plates for analysis of kynurenine and the internal standard on the RapidFire 300 (Agilent Technologies, Santa Clara, Calif.) and 4000 QTRAP MS (SCIEX, Framingham, Mass.). MS data were integrated using Agilent Technologies' RapidFire Integrator software, and data were normalized for analysis as a ratio of kynurenine to the internal standard.

Compound | PBMC_TOX PXC50
CC(C)CN(c1ncc([C@H](C)CC(=O)O)cc1Nc1cnc(C#N)nc1)C1CCOCC1 [Example 65, (3R)-3-{5-[(2-cyanopyrimidin-5-yl)amino]-6-[(2-methylpropyl)(oxan-4-yl)amino]pyridin-3-yl}butanoic acid] | <5.0
COCc1ccc(Nc2cc(C(C)CC(=O)O)cnc2N(CC(C)C)C2CCC(OC)CC2)nc1 (stereo not drawn) [Example 47, (3RS)-3-(5-{[5-(methoxymethyl)pyridin-2-yl]amino}-6-[(2-methylpropyl)[(1rs&,4rs&)-4-methoxycyclohexyl]amino]pyridin-3-yl)butanoic acid] | <5.0
CNC(=O)c1nnc(Nc2cc([C@H](C)CC(=O)O)cnc2N(CC(C)C)C2CCCCC2)s1 [Example 64, (3R)-3-{6-[cyclohexyl(2-methylpropyl)amino]-5-{[5-(methylcarbamoyl)-1,3,4-thiadiazol-2-yl]amino}pyridin-3-yl}butanoic acid] | <5.0
CC(C)CN(c1ncc([C@H](C)CC(=O)O)cc1Nc1n[nH]c(C(F)(F)F)n1)C1CCCCC1 [Example 10, (R)-3-(6-(cyclohexyl(isobutyl)amino)-5-((5-(trifluoromethyl)-1H-1,2,4-triazol-3-yl)amino)pyridin-3-yl)butanoic acid] | <5.0
CC(C)CN(c1ncc([C@H](C)CC(=O)O)cc1Nc1nc(C(F)(F)F)c[nH]1)C1CCOCC1 [Example 48, (3R)-3-{6-[(2-methylpropyl)(oxan-4-yl)amino]-5-{[4-(trifluoromethyl)-1H-imidazol-2-yl]amino}pyridin-3-yl}butanoic acid] | <5.0
CC(C)CN(c1ncc([C@H](C)CC(=O)O)cc1Nc1ccc(Cl)c(Cl)n1)C1CCOCC1 [Example 68, (3R)-3-{5-[(5,6-dichloropyridin-2-yl)amino]-6-[(2-methylpropyl)(oxan-4-yl)amino]pyridin-3-yl}butanoic acid] | <5.0
CC(C)CN(c1ncc([C@H](C)CC(=O)O)cc1Nc1nc(C2CC2)ns1)C1CCOCC1 [Example 41, (3R)-3-{5-[(3-cyclopropyl-1,2,4-thiadiazol-5-yl)amino]-6-[(2-methylpropyl)(oxan-4-yl)amino]pyridin-3-yl}butanoic acid] | <5.0
CC(C)CN(c1ncc([C@H](C)CC(=O)O)cc1Nc1nnc(C(N)=O)s1)C1CCCCC1 [Example 63, (3R)-3-{5-[(5-carbamoyl-1,3,4-thiadiazol-2-yl)amino]-6-[cyclohexyl(2-methylpropyl)amino]pyridin-3-yl}butanoic acid] | <5.0
CC(C)CN(c1ncc([C@H](C)CC(=O)O)cc1Nc1ccc(Cl)c(C#N)n1)C1CCOCC1 [Example 70, (3R)-3-{5-[(5-chloro-6-cyanopyridin-2-yl)amino]-6-[(2-methylpropyl)(oxan-4-yl)amino]pyridin-3-yl}butanoic acid] | <5.0
COCc1nsc(Nc2cc([C@H](C)CC(=O)O)cnc2N(CC(C)C)C2CCOCC2)n1 [Example 56, (3R)-3-(5-{[3-(methoxymethyl)-1,2,4-thiadiazol-5-yl]amino}-6-[(2-methylpropyl)(oxan-4-yl)amino]pyridin-3-yl)butanoic acid] | <5.0
COC1CCC(N(CC(C)C)c2ncc(C(C)CC(=O)O)cc2Nc2ccc(C#N)cn2)CC1 (stereo not drawn) [Example 53, (3RS)-3-{5-[(5-cyanopyridin-2-yl)amino]-6-[(2-methylpropyl)[(1rs&,4rs&)-4-methoxycyclohexyl]amino]pyridin-3-yl}butanoic acid] | <5.0
CC(C)CN(c1ncc([C@H](C)CC(=O)O)cc1Nc1nc(Cl)ns1)C1CCOCC1 [Example 39, (3R)-3-{5-[(3-chloro-1,2,4-thiadiazol-5-yl)amino]-6-[(2-methylpropyl)(oxan-4-yl)amino]pyridin-3-yl}butanoic acid] | <5.0
CC(C)CN(c1ncc([C@H](C)CC(=O)O)cc1Nc1ccc(C(N)=O)nn1)C1CCOCC1 [Example 73, (3R)-3-{5-[(6-carbamoylpyridazin-3-yl)amino]-6-[(2-methylpropyl)(oxan-4-yl)amino]pyridin-3-yl}butanoic acid] | <5.0
CC(C)CN(c1ncc(C(C)CC(=O)O)cc1Nc1nc(C2CC2)ns1)C1CCOCC1 (centres unmarked) [Example 37, 3-{5-[(3-cyclopropyl-1,2,4-thiadiazol-5-yl)amino]-6-[(2-methylpropyl)(oxan-4-yl)amino]pyridin-3-yl}butanoic acid] | <5.0
CC(C)CN(c1ncc([C@H](C)CC(=O)O)cc1Nc1n[nH]c(C(F)(F)F)n1)C1CCOCC1 [Example 42, (3R)-3-{6-[(2-methylpropyl)(oxan-4-yl)amino]-5-{[5-(trifluoromethyl)-1H-1,2,4-triazol-3-yl]amino}pyridin-3-yl}butanoic acid] | <5.0
CC(C)CN(c1ncc([C@H](C)CC(=O)O)cc1Nc1n[nH]c(C(N)=O)n1)C1CCOCC1 [Example 44, (3R)-3-{5-[(5-carbamoyl-1H-1,2,4-triazol-3-yl)amino]-6-[(2-methylpropyl)(oxan-4-yl)amino]pyridin-3-yl}butanoic acid] | <5.0
CC(C)CN(c1ncc([C@H](C)CC(=O)NS(=O)(=O)N(C)C)cc1Nc1ccc(Cl)cn1)C1CCOCC1 [Example 80, (3R)-3-{5-[(5-chloropyridin-2-yl)amino]-6-[(2-methylpropyl)(oxan-4-yl)amino]pyridin-3-yl}-N-(dimethylsulfamoyl)butanamide] | <5.0
CC(C)CN(c1ncc([C@H](C)CC(=O)O)cc1Nc1cnc(Cl)cn1)C1CCOCC1 [Example 77, (3R)-3-{5-[(5-chloropyrazin-2-yl)amino]-6-[(2-methylpropyl)(oxan-4-yl)amino]pyridin-3-yl}butanoic acid] | <5.0
CC(C)CN(c1cnc([C@H](C)CC(=O)O)cc1Nc1ccc(Cl)cn1)C1CCOCC1 [Example 82, (3R)-3-{4-[(5-chloropyridin-2-yl)amino]-5-[(2-methylpropyl)(oxan-4-yl)amino]pyridin-2-yl}butanoic acid] | <5.0
CO[C@H]1CC[C@@H](N(CC(C)C)c2ncc([C@H](C)CC(=O)O)cc2Nc2ccc(C#N)nc2)CC1 [Example 23, (R)-3-(5-((6-cyanopyridin-3-yl)amino)-6-(isobutyl((1s,4S)-4-methoxycyclohexyl)amino)pyridin-3-yl)butanoic acid] | <5.0
CC(C)CN(CC(C)C)c1nnc(C(C)CC(=O)O)cc1Nc1nc(C(F)(F)F)ns1 (centres unmarked) [Example 72, 3-{6-[bis(2-methylpropyl)amino]-5-{[3-(trifluoromethyl)-1,2,4-thiadiazol-5-yl]amino}pyridazin-3-yl}butanoic acid] | <5.0
CC(C)CN(c1ncc([C@H](C)CC(=O)O)cc1Nc1ccc(C#N)nc1)C1CCOCC1 [Example 62, (3R)-3-{5-[(6-cyanopyridin-3-yl)amino]-6-[(2-methylpropyl)(oxan-4-yl)amino]pyridin-3-yl}butanoic acid] | <5.0
Cc1nnc(Nc2cc([C@H](C)CC(=O)O)cnc2N(CC(C)C)C2CCCCC2)s1 [Example 45, (3R)-3-{6-[cyclohexyl(2-methylpropyl)amino]-5-[(5-methyl-1,3,4-thiadiazol-2-yl)amino]pyridin-3-yl}butanoic acid] | <5.0
